Columns and labels:
[1] = system: DU-145; experiment: Inhibitory concentration against human prostate cell line DU145 was determined; format: functional, cell-based
[2] = Inhibitory concentration against human breast cell line MDA MB468 was determined; format: functional, cell-based; conditions: mda-mb-468
[3] = molecular target: Cyclin-dependent kinase 1/cyclin B (Homo sapiens, UniProt P06493); experiment: Inhibition of Cyclin-dependent kinase 1-cyclin B; format: protein-complex assay
[4] = system: COLO 205; experiment: Inhibitory concentration against human colon cell line COLO 205 was determined; format: functional, cell-based
[5] = system: A498; experiment: Inhibitory concentration against human kidney cell line A498 was determined; format: functional, cell-based
[6] = system: MCF7; experiment: Inhibitory concentration against human breast cell line MCF-7 was determined; format: functional, cell-based
[7] = molecular target: Cyclin-dependent kinase 2/cyclin E (Homo sapiens, UniProt P24941)
Description: Inhibition of Cyclin-dependent kinase 2-cyclin E

[8] = system: T47D; experiment: Inhibitory concentration against human breast cell line T47D was determined; format: functional, cell-based
[9] = system: HCT-116; experiment: Inhibition of human colon carcinoma cell (HCT116) proliferation; format: functional, cell-based
[10] = system: HCT-116; experiment: Inhibitory concentration against human colon cell line HCT116 was determined; format: functional, cell-based
[11] = Inhibitory concentration against NCI H460 cell line was determined; format: functional, cell-based, Homo sapiens
[12] = molecular target: T1, Cyclin-dependent kinase 4/cyclin D1 (Homo sapiens, UniProt P11802); experiment: Inhibition of Cyclin-dependent kinase 4-cyclin D1; format: protein-complex assay
[13] = Partition coefficient (logP); format: physicochemical; conditions: octanol/water
[14] = system: HCT-116; experiment: Concentration required for growth inhibition of human colon carcinoma cell line HCT116; format: functional, cell-based
[15] = Inhibition of Protein Kinase A activity
[16] = system: AG1523; experiment: Concentration required for growth inhibition of human fibroblast cell line Ag 1523; format: functional, cell-based
[17] = molecular target: T1, Cyclin-dependent kinase 4/cyclin D1; experiment: Inhibition of Cyclin-dependent kinase 4/cyclin D1; format: protein-complex assay
[18] = molecular target: Tyrosine-protein kinase ABL1 (Homo sapiens, UniProt P00519)
Sequence of Tyrosine-protein kinase ABL1 (P00519 whole entry): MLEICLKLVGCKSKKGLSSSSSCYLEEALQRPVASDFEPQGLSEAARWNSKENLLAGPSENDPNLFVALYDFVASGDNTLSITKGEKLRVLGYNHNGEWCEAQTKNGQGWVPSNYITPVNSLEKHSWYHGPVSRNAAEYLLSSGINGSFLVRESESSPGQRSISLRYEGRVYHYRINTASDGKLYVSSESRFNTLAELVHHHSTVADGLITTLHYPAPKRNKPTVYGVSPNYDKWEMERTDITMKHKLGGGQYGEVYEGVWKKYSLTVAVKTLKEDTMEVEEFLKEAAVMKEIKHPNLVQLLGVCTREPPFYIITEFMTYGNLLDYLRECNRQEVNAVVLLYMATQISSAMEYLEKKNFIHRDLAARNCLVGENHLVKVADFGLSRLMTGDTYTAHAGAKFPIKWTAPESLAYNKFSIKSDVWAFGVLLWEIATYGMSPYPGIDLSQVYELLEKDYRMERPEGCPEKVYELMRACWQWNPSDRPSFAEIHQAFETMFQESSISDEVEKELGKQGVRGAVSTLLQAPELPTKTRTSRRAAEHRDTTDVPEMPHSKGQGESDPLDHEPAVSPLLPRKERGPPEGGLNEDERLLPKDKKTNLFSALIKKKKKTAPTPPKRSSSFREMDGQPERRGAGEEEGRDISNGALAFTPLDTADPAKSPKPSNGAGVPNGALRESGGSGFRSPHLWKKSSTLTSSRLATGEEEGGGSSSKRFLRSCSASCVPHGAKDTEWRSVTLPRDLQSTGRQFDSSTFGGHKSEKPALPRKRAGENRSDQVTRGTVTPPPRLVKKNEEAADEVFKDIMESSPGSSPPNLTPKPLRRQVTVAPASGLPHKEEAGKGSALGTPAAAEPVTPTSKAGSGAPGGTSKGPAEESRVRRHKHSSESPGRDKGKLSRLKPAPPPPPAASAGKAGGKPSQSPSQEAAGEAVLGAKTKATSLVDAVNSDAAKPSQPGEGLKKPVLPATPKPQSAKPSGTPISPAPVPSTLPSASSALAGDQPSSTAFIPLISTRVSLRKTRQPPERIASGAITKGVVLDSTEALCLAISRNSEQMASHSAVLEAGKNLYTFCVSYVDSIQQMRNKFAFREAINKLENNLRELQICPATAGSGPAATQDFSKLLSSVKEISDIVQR
Description: Inhibition of c-Abl tyrosine kinase activity

T1 sequence (P11802 whole entry): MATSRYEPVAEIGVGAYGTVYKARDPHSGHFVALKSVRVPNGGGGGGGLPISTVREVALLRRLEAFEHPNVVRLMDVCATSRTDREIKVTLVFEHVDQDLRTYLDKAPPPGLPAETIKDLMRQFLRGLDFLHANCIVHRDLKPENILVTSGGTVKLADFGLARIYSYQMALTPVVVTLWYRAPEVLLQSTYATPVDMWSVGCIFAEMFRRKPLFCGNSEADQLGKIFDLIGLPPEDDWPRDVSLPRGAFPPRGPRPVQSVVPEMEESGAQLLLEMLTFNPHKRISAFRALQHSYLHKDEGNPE
T1 sequence (P24385 whole entry, further chain): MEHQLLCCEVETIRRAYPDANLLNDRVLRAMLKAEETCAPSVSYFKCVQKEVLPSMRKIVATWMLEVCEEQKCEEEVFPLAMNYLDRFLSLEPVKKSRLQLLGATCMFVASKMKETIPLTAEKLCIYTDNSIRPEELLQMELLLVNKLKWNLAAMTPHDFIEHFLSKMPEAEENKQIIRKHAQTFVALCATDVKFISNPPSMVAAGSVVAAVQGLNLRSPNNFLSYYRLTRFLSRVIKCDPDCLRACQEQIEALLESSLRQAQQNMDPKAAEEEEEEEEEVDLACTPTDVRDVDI

Row | SMILES | IC50 [3] [nM] | IC50 [7] [nM] | IC50 [9] [nM] | IC50 [12] [nM] | logP [13] | other results
1 | CCc1nn(-c2c(Cl)cc(Cl)cc2Cl)c2nc(Cc3cccc(C)c3)[nH]c(=O)c12 | > 560 | 390 | 2100 | > 2200 |  | 
2 | CN[C@@H]1C[C@H]2O[C@@](C)([C@@H]1OC)n1c3ccccc3c3c4c(c5c6ccccc6n2c5c31)C(=O)NC4 [STAUROSPORINE] |  |  |  |  |  | IC50 [14]: 6 nM
3 | CN1CCC(c2c(O)cc(O)c3c(=O)cc(-c4ccccc4Cl)oc23)[C@@H](O)C1 (mixture of isomers) |  |  |  |  |  | IC50 [15]: > 500 µM; IC50 [14]: 490 nM; IC50 [16]: 6.7 µM
4 | CSc1nn(-c2c(Cl)cc(Cl)cc2Cl)c2nc(C)[nH]c(=O)c12 | 6200 | 360 |  | 2100 |  | IC50 [15]: > 500 µM; IC50 [14]: 2500 nM; IC50 [17]: 2100 nM; IC50 [18]: 420 µM; IC50 [16]: 9.2 µM
5 | CCc1nn(-c2c(Cl)cc(Cl)cc2Cl)c2nc(Cc3ccc(O)c(OC)c3)[nH]c(=O)c12 | 860 | 70 | 320 | 6600 |  | 
6 | CCc1nn(-c2c(Cl)cc(Cl)cc2Cl)c2nc(Cc3cccc(O)c3)[nH]c(=O)c12 | 190 | 10 | 400 | 60 |  | 
7 | CCc1nn(-c2c(Cl)cc(Cl)cc2Cl)c2nc(Cc3cccc(N)c3C)[nH]c(=O)c12 | > 270 | 10 | 190 | > 2200 |  | 

Now from value to molecule, other results behind:

Row | IC50 [3] [nM] | IC50 [7] [nM] | IC50 [9] [nM] | IC50 [12] [nM] | logP [13] | SMILES | other results
8 | 100 | 10 | 30 | 590 | 4.2 | CN(C)c1ccc(C(=C2C=CC(=[N+](C)C)C=C2)c2ccc(N(C)C)cc2)cc1.CN(C)c1ccc(C(=C2C=CC(=[N+](C)C)C=C2)c2ccc(N(C)C)cc2)cc1.CN=C1C=CC(=C(c2ccc(N(C)C)cc2)c2ccc(N(C)C)cc2)C=C1 | IC50 [1]: 15 nM; IC50 [2]: 12 nM; IC50 [4]: 13 nM; IC50 [5]: 57 nM; IC50 [6]: 14 nM; IC50 [8]: 16 nM; IC50 [10]: 34 nM; IC50 [11]: 16 nM
9 | 70 | 10 | 120 | 460 | 3.3 | CCc1nn(-c2c(Cl)cc(Cl)cc2Cl)c2nc(Cc3ccc(NC(=O)CN)cc3)nc(O)c12 | 
10 | 30 | 9 | 20 | 1300 | 3.9 | CCc1nn(-c2c(Cl)cc(Cl)cc2Cl)c2nc(Cc3ccc(NC(C)=O)cc3)[nH]c(=O)c12 | 
11 | 270 | 40 | 470 | 2900 |  | CCc1nn(-c2c(Cl)cc(Cl)cc2Cl)c2nc(Cc3cccc(N)c3)[nH]c(=O)c12 | 
12 | 520 | 20 | 670 | 80 |  | CCc1nn(-c2c(Cl)cc(Cl)cc2Cl)c2nc(Cc3ccc(C)c(O)c3)[nH]c(=O)c12 | 
13 | 150 | 10 | 420 | 2700 | 3.8 | CCc1nn(-c2c(Cl)cc(Cl)cc2Cl)c2nc(Cc3ccc(N)cc3)[nH]c(=O)c12 | 
14 | 180 | 10 | 160 | 1700 | 4.9 | CCc1nn(-c2c(Cl)cc(Cl)cc2Cl)c2nc(Cc3ccc(NC(=O)CNC(=O)OC(C)(C)C)cc3)[nH]c(=O)c12 | 

Reference: ChEMBL document CHEMBL1138844, “Synthesis and biological evaluation of 1-aryl-4,5-dihydro-1H-pyrazolo[3,4-d]pyrimidin-4-one inhibitors of cyclin-dependent kinases” (J Med Chem, 2004)
